# Measurements from patent US7629340B2, “N-(6-membered aromatic ring)-amido anti-viral compounds” (SmithKline Beecham Corporation, priority 2005, dated 2009).
# Test: Replicon Assay (luciferase, ET cell line)
# Type: cell-based, HCV
# Conditions: Hepatitis C virus; % inhibition of replication relative to no compound control, test concentration of 10 μM; ET cells, luciferase read 48-72 hours; read-out: % inhib at 10 uM
# Procedure: A cell line, ET (Huh-lucubineo-ET) was used for screening of compounds of the present invention for HCV RNA dependent RNA polymerase. The ET cell line was stably transfected with RNA transcripts harboring a I389luc-ubi-neo/NS3-3′/ET; replicon with firefly luciferase-ubiquitin-neomycin phosphotransferase fusion protein and EMCV-IRES driven NS3-5B polyprotein containing the cell culture adaptive mutations (E1202G; T1280I; K1846T) (Krieger at al, 2001 and unpublished). The ET cells were grown in DMEM, supplemented with 10% fetal calf serum, 2 mM Glutamine, Penicillin (100 IU/mL)/Stretomycin (100 μg/mL), 1× nonessential amino acids, and 250 μg/mL G418 (“Geneticin”). They were all available through Life Technologies (Bethesda, Md.). The cells were plated at 0.5−1.0×10^4 cells/well in the 96 well plates and incubated for 24 hrs before adding nucleoside analogs. […] Luciferase activity were measured 48-72 hours later by adding a lysis buffer and the substrate (Catalog number Glo-lysis buffer E2661 and Bright-Glo luciferase system E2620 Promega, Madison, Wis.). Cells should not be too confluent during the assay. Percent inhibition of replication was plotted relative to no compound control. Under the same condition, cytotoxicity of the compounds was determined using cell proliferation reagent, WST-1 (Roche, Germany). The compounds showing antiviral activities, but no significant cytotoxicities were chosen to determine IC50 and TC50. For these determinations, 10 concentration of each compound were used. Concentrations for test compounds typically span a range of 500 fold. IC50 and TC50 values were calculated by fitting % inhibition at each concentration (I) to the following equation: % inhibition=100%/[1+10^(log IC50−log(I))*b] where b is Hill's coefficient.
row,SMILES,inhibition at 10 µM [%]
1,"CC(=O)Nc1cccc(-c2cccc(NC(=O)[C@@H]3CCCN3C(=O)OCc3ccccc3)c2)c1 [Compound 6057, 2-(3′-Acetylamino-biphenyl-3-ylcarbamoyl)-pyrrolidine-1-carboxylic acid benzyl ester]",61.7
2,"O=C(Nc1cccc(-c2ccc3cc(O)ccc3c2)c1)[C@@H]1CCCN1C(=O)OCc1ccccc1 [Compound 6088, 2-[3-(6-Hydroxy-naphthalen-2-yl)-phenylcarbamoyl]-pyrrolidine-1-carboxylic acid benzyl ester]",99.9
3,"CC1CCN(S(=O)(=O)c2ccc(NC(=O)[C@@H]3CCCN3C(=O)OCc3ccccc3)cc2)CC1 [Compound 6003, 2-[4-(4-Methyl-piperidine-1-sulfonyl)-phenylcarbamoyl]-pyrrolidine-1-carboxylic acid benzyl ester]",1.21
4,"O=C(Nc1c(Cl)cccc1Cl)c1ccc(NC(=O)[C@@H]2CCCN2C(=O)OCc2ccccc2)cc1 [Compound 6004, 2-[4-(2,6-Dichloro-phenylcarbamoyl)-phenylcarbamoyl]-pyrrolidine-1-carboxylic acid benzyl ester]",2.08
5,"O=C(Nc1cccc(-c2ccc3ccccc3c2)c1)[C@@H]1CCCN1C(=O)OCc1ccccc1 [Compound 6044, 2-(3-Naphthalen-2-yl-phenylcarbamoyl)-pyrrolidine-1-carboxylic acid benzyl ester]",73.2
6,"COc1ccc(OC)c(-c2ccc(NC(=O)[C@@H]3CCCN3C(=O)OCc3ccccc3)cc2)c1 [Compound 6007, 2-(2′,5′-Dimethoxy-biphenyl-4-ylcarbamoyl)-pyrrolidine-1-carboxylic acid benzyl ester]",93.4
7,"CC1=NN(c2ccccc2)C(=O)/C1=C\c1ccc(NC(=O)[C@@H]2CCCN2C(=O)OCc2ccccc2)cc1 (stereo in doubt) [Compound 6005, 2-[4-(3-Methyl-5-oxo-1-phenyl-1,5-dihydro-pyrazol-4-ylidenemethyl)-phenylcarbamoyl]-pyrrolidine-1-carboxylic acid benzyl ester]",3.63
8,"O=C(Nc1cccc(-c2ccc3[nH]ccc3c2)c1)[C@@H]1CCCN1C(=O)OCc1ccccc1 [Compound 6010, 2-[3-(1H-Indol-5-yl)-phenylcarbamoyl]-pyrrolidine-1-carboxylic acid benzyl ester]",98.6
9,"Cc1ccc(S(=O)(=O)c2ccc(Oc3cccc(NC(=O)[C@@H]4CCCN4C(=O)OCc4ccccc4)c3)cc2)cc1 (stereo in doubt) [Compound 6027, 2-{3-[4-(Toluene-4-sulfonyl)-phenoxy]-phenylcarbamoyl}-pyrrolidine-1-carboxylic acid benzyl ester]",98.1
10,"O=C(NC1CC1)c1cccc(-c2cccc(NC(=O)[C@@H]3CCCN3C(=O)OCc3ccccc3)c2)c1 [Compound 6310, 2-(3′-Cyclopropylcarbamoyl-biphenyl-3-ylcarbamoyl)-pyrrolidine-1-carboxylic acid benzyl ester]",78.4
11,"O=C(Nc1ccc(-c2ccc3[nH]ccc3c2)cc1)[C@@H]1CCCN1C(=O)OCc1ccccc1 [Compound 6009, 2-[4-(1H-Indol-5-yl)-phenylcarbamoyl]-pyrrolidine-1-carboxylic acid benzyl ester]",83.3
12,"CN(C)c1cccc(-c2cccc(NC(=O)[C@@H]3CCCN3C(=O)OCc3ccccc3)c2)c1 [Compound 6096, 2-(3′-Dimethylamino-biphenyl-3-ylcarbamoyl)-pyrrolidine-1-carboxylic acid benzyl ester]",53.3
13,"COc1cccc(OC)c1-c1cccc(NC(=O)[C@@H]2CCCN2C(=O)OCc2ccccc2)c1 (stereo in doubt) [Compound 6033, 2-(2′,6′-Dimethoxybiphenyl-3-yl-carbamoyl)-pyrrolidine-1-carboxylic acid benzyl ester]",8.26
14,"O=C(Nc1cc(Oc2ccccc2)cc(Oc2cccnc2)c1)[C@@H]1CCCN1C(=O)OCc1ccccc1 [Compound 6024, 2-[3-Phenoxy-5-(pyridin-3-yloxy)-phenylcarbamoyl]-pyrrolidine-1-carboxylic acid benzyl ester]",98.1
15,"O=C(Nc1cccc(S(=O)(=O)c2ccccc2)c1)[C@@H]1CCCN1C(=O)OCc1ccccc1 [Compound 6013, 2-(3-Benzenesulfonyl-phenylcarbamoyl)-pyrrolidine-1-carboxylic acid benzyl ester]",32.5
16,"Nc1cc(-c2cccc(NC(=O)[C@@H]3CCCN3C(=O)OCc3ccccc3)c2)cc(C(F)(F)F)c1 [Compound 6095, 2-(3′-Amino-5′-trifluoromethyl-biphenyl-3-ylcarbamoyl)-pyrrolidine-1-carboxylic acid benzyl ester]",61.6

row,SMILES,inhibition at 10 µM [%]
1,"Cc1cc2nc(Cc3ccc(NC(=O)[C@@H]4CCCN4C(=O)OCc4ccccc4)cc3)[nH]c2cc1C [Compound 6014, 2-[4-(5,6-Dimethyl-1H-benzoimidazol-2-ylmethyl)-phenylcarbamoyl]-pyrrolidine-1-carboxylic acid benzyl ester]",99.6
2,"O=C(Nc1cccc(Br)c1)[C@@H]1CCCN1C(=O)OCc1ccccc1 [Compound 6047, 2-(3-Bromo-phenylcarbamoyl)-pyrrolidine-1-carboxylic acid benzyl ester]",1.38
3,"CC(=O)Nc1ccc(-c2cccc(NC(=O)[C@@H]3CCCN3C(=O)OCc3ccccc3)c2)cc1 [Compound 6056, 2-(4′-Acetylamino-biphenyl-3-ylcarbamoyl)-pyrrolidine-1-carboxylic acid benzyl ester]",80.8
4,"COc1cccc(-c2cccc(NC(=O)[C@@H]3CCCN3C(=O)OCc3ccccc3)c2)c1 [Compound 6008, 2-(3′-Methoxy-biphenyl-3-ylcarbamoyl)-pyrrolidine-1-carboxylic acid benzyl ester]",79.8
5,"O=C(Cc1cccc(-c2cccc(NC(=O)[C@@H]3CCCN3C(=O)OCc3ccccc3)c2)c1)NC1CC1 [Compound 6312, 2-(3′-Cyclopropylcarbamoylmethyl-biphenyl-3-ylcarbamoyl)-pyrrolidine-1-carboxylic acid benzyl ester]",68.6
6,"CC(=O)c1ccc(-c2cccc(NC(=O)[C@@H]3CCCN3C(=O)OCc3ccccc3)c2)s1 [Compound 6048, 2-[3-(5-Acetyl-thiophen-2-yl)-phenylcarbamoyl]-pyrrolidine-1-carboxylic acid benzyl ester]",36.9
7,"O=C(Nc1ccc(NS(=O)(=O)c2ccccc2)cc1)[C@@H]1CCCN1C(=O)OCc1ccccc1 [Compound 6002, 2-(4-Benzenesulfonylamino-phenylcarbamoyl)-pyrrolidine-1-carboxylic acid benzyl ester]",2.69
8,"O=C(Nc1cccc(-c2cccc([N+](=O)[O-])c2)c1)[C@@H]1CCCN1C(=O)OCc1ccccc1 [Compound 6309, 2-(3′-Nitro-biphenyl-3-ylcarbamoyl)-pyrrolidine-1-carboxylic acid benzyl ester]",99.8
9,"NC(=O)Nc1cccc(-c2cccc(NC(=O)[C@@H]3CCCN3C(=O)OCc3ccccc3)c2)c1 [Compound 6093, 2-(3′-Ureido-biphenyl-3-ylcarbamoyl)-pyrrolidine-1-carboxylic acid benzyl ester]",98.1
10,"CC(=O)c1cccc(-c2cccc(NC(=O)[C@@H]3CCCN3C(=O)OCc3ccccc3)c2)c1 [Compound 6087, 2-(3′-Acetyl-biphenyl-3-ylcarbamoyl)-pyrrolidine-1-carboxylic acid benzyl ester]",78.9
11,"COc1ccc(-c2cccc(NC(=O)[C@@H]3CCCN3C(=O)OCc3ccccc3)c2)cc1OC [Compound 6029, 2-(3′,4′-Dimethoxybiphenyl-3-yl-carbamoyl)-pyrrolidine-1-carboxylic acid benzyl ester]",3.08
12,"Cc1cccc(Oc2cc(NC(=O)[C@@H]3CCCN3C(=O)OCc3ccccc3)cc([N+](=O)[O-])c2)c1 (stereo in doubt) [Compound 6039, 2-(3-Nitro-5-m-tolyloxy-phenylcarbamoyl)-pyrrolidine-1-carboxylic acid benzyl ester]",33.8
13,"O=C(Nc1ccc(Cc2nc3cc4ccccc4cc3[nH]2)cc1)[C@@H]1CCCN1C(=O)OCc1ccccc1 [Compound 6020, 2-[4-(1H-Naphtho[2,3-d]imidazol-2-ylmethyl)-phenylcarbamoyl]-pyrrolidine-1-carboxylic acid benzyl ester]",99.9
14,"COc1cccc(-c2ccc(NC(=O)[C@@H]3CCCN3C(=O)OCc3ccccc3)cc2)c1OC [Compound 6028, 2-(2′,3′-Dimethoxy-biphenyl-4-ylcarbamoyl)-pyrrolidine-1-carboxylic acid benzyl ester]",75
15,"O=C1Cc2cc(-c3cccc(NC(=O)[C@@H]4CCCN4C(=O)OCc4ccccc4)c3)ccc2N1 [Compound 6083, 2-[3-(2-Oxo-2,3-dihydro-1H-indol-5-yl)-phenylcarbamoyl]-pyrrolidine-1-carboxylic acid benzyl ester]",93.8
